Literature values, collected in patent US10828268B2 (priority 2013, dated 2020).

Settings: human, taken orally

- oral bioavailability: poorly bioavailable
Compound: COc1cc(/C=C/C(=O)CC(=O)/C=C/c2ccc(O)c(OC)c2)ccc1O [curcumin]
